Results from patent publication US11162902B2, “Metasurfaces comprised of nanosphere oligomers with uniform narrow gap spacings, their method of fabrication and applications in sensing” (The Regents of the University of California, priority 2017, dated 2021).
In brackets after ≈: the same amount, converted by molar mass.

Tests used:
P. aeruginosa biofilms = assay: Antibiotic susceptibility measurements of surface-attached bacteria / biofilms (live/dead staining, dead cell fraction); format: cell-based, Pseudomonas aeruginosa; conditions: 600 μg·mL^−1 carbenicillin in PBS for 3 h; growth 6, 10, 15, 24 h; FIG. 18E
[1] = test system: P. aeruginosa strain PA14; conditions: cited from earlier work

Compound: CC1(C)S[C@@H]2[C@H](NC(=O)C(C(=O)O)c3ccccc3)C(=O)N2[C@H]1C(=O)O (some centres unmarked) [carbenicillin]
- antibiotic susceptibility of surface-attached bacteria at different stages of biofilm growth (P. aeruginosa biofilms): susceptibility decreased significantly with increasing growth time
- minimum inhibitory concentration [1]: 128 mg/L (≈ 338 µM)
